This note sets out measurements from ChEMBL document CHEMBL3397013, “Target engagement in lead generation” (Bioorg Med Chem Lett, 2015).

In data set [1] the target is Tyrosine-protein kinase BTK (Homo sapiens, UniProt Q06187). The data set is described as follows: Inhibition of BTK (unknown origin) using ATP and Y5 Sox15 substrate mix incubated for 30 mins by fluorescence based assay.
Data set [2] deals with Lung. The data set is described as follows: Drug level in rat lung at 2.3 mg/kg dosed via inhalation measured post cell suspension. On the set-up: dose 2.3 mg/kg. It is filed as ADME, organism-based. The conditions noted are these: in vivo, inhaled_or_intranasal, read-out: Drug uptake.
The target of data set [3] is T1, Tyrosine-protein kinase ITK/TSK (Homo sapiens, UniProt Q08881).
T1 sequence (Q08881 whole entry): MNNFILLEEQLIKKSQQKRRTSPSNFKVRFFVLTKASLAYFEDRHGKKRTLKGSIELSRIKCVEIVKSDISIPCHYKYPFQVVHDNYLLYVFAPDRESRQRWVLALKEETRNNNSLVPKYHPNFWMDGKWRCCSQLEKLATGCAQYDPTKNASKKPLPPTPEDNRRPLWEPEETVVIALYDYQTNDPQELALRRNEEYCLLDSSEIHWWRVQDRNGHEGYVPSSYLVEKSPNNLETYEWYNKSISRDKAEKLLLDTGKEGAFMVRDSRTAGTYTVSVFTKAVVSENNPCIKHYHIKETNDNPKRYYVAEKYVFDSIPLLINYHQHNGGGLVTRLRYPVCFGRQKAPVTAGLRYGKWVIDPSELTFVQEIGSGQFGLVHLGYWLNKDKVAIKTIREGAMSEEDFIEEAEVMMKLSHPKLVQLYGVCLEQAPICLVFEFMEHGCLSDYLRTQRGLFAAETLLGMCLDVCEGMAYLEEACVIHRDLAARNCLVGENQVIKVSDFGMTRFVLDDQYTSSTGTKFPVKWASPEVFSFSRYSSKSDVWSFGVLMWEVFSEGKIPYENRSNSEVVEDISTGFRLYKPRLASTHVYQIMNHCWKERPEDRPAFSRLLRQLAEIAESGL
Nature of the data set: Inhibition of human ITK.

In data set [4] the test system is Lung. The data set is described as follows: Drug level in rat lung at 2.3 mg/kg dosed via inhalation measured post perfusion. It is filed as ADME, organism-based. Details: dose 2.3 mg/kg. The conditions noted are these: in vivo, inhaled_or_intranasal, read-out: Drug uptake.
Data set [5] deals with T2, Tyrosine-protein kinase ITK/TSK (Homo sapiens) (UniProt Q08881).
T2 sequence (whole entry): T1 sequence (Q08881 whole entry)
Nature of the data set: Inhibition of human ITK assessed as ratio of Kinact to Ki.

Data set [6] can be described thus: Inhibition of human PDE isoforms.
Data set [7] has as its target cAMP and cAMP-inhibited cGMP 3',5'-cyclic phosphodiesterase 10A (Homo sapiens, UniProt Q9Y233). The data set is described as follows: Inhibition of human PDE10A.
The test system of data set [8] is Rattus norvegicus. The data set is described as follows: Binding affinity to 5HT1A receptor in Sprague-Dawley rat at 0.3 to 10 mg/kg, po after 2 to 8 hrs by PET imaging method. It is filed as functional, organism-based. Details: route oral.
In data set [9] the test system is Rattus norvegicus. Nature of the data set: Induction of prolongation of micturition interval in orally dosed Sprague-Dawley rat model of 8-OH-DPAT induced overactive bladder by cystometric study. The following applies: po, read-out: MED. It is filed as functional.

Tyrosine-protein kinase BTK, sequence (Q06187 whole entry): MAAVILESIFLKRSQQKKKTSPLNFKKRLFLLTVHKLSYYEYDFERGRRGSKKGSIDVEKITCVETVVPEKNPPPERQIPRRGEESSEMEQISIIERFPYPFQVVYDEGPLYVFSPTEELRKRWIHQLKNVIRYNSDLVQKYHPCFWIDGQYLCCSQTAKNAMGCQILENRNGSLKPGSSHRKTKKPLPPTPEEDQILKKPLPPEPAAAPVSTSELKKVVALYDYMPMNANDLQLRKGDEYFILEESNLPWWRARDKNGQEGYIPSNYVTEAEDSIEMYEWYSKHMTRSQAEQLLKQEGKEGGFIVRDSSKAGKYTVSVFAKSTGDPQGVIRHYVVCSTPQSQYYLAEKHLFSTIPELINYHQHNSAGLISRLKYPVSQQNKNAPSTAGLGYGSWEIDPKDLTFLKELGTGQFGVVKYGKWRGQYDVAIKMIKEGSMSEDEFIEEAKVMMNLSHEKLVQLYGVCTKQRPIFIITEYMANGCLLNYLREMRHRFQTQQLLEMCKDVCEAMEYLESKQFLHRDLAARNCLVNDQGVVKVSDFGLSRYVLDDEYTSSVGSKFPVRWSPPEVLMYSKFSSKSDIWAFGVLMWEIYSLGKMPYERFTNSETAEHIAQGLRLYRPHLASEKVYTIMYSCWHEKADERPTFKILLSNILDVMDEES
cAMP and cAMP-inhibited cGMP 3',5'-cyclic phosphodiesterase 10A, sequence (Q9Y233 whole entry): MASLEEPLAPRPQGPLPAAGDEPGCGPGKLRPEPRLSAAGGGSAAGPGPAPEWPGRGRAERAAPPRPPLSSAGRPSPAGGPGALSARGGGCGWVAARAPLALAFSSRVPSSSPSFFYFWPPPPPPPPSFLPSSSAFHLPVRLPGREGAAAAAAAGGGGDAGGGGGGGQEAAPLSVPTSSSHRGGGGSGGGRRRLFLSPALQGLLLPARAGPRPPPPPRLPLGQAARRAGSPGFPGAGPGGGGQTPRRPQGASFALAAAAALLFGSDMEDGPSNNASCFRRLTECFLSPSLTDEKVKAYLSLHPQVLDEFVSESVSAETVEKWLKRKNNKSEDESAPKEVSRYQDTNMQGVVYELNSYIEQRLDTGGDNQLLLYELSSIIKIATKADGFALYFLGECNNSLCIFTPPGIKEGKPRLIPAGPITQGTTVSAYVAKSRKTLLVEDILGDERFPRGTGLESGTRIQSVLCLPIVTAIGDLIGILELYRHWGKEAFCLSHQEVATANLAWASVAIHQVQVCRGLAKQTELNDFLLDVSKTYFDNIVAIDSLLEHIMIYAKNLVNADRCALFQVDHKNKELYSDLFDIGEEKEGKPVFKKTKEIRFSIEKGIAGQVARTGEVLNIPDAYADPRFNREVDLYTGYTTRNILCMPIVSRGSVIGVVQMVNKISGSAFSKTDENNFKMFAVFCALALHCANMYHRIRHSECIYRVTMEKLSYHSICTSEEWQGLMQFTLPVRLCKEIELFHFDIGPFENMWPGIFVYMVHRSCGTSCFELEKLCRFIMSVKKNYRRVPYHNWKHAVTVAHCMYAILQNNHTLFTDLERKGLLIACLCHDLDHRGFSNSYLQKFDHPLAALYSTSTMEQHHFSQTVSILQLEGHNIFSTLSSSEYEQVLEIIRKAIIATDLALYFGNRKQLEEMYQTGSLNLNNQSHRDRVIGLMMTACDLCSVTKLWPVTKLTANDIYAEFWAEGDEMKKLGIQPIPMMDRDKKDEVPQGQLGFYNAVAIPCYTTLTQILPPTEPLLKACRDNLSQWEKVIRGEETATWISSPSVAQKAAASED

For orientation: IC50 means the concentration needed to halve the response being measured. Low values mean inhibition by little substance, high ones a need for much substance. As to `C=CC(=O)Nc1cccc(N(C)c2nc(Nc3cccc(OCCCN(C)C(=O)CCCC(=O)NCCCOCCOCCOCCCNC(=O)CCCC[C@H]4SC[C@H]5NC(=O)N[C@H]54)c3)ncc2C)c1`, in data set [1], the IC50 was found to be 0.5 nM. This lies in the sub-nanomolar range.
As for `C=CC(=O)N1CC[C@H](Nc2cc(CN[C@@H](C)C(C)(C)C)cc(Nc3nc4cccnc4s3)n2)C1`, the figures for the concentration with Lung [2] and with Lung [4] were 0.008 µM and 6 µM, respectively. The molecule also had an IC50 in data set [3] of 5 nM. Also, the Ratio in data set [5] was 520000 M⁻¹ s⁻¹.
With `Cc1nc2ccccc2nc1-c1cc2nc(N3CC[C@@H](F)C3)cc(N([11CH3])C3CCOCC3)n2n1`, the IC50 in data set [6] was more than 1000 nM; in data set [7] it was 0.06 nM.
For orientation: EC50 means the concentration giving half of the maximal effect. The molecule `CNC(=O)c1ccc2ccn(C3CCN(CCc4c(OC)ccc5c4OC(C)(C)CC5=O)CC3)c2c1.O=C(O)/C=C/C(=O)O` gave an EC50 with Rattus norvegicus [8] of 5.4 nM. Besides, the minimal effective dose in the data set on Rattus norvegicus [9] worked out at 0.1 mg/kg.
